# ChEMBL document CHEMBL1157922, “Design of new dopamine D2 receptor ligands: biosynthesis and pharmacological evaluation of the hydroxylated metabolite of LASSBio-581” (Bioorg Med Chem Lett, 2010)
# How the values were obtained:
# [1] = Displacement of [3H]YM-9151-2 from D2 like receptor in rat striatal membrane; assay type: cell membranes, Striatum
# [2] = target: 5-hydroxytryptamine receptor 2A (Rattus norvegicus, UniProt P14842); assay: Displacement of [3H]ketanserin from 5HT2A receptor in rat cortex membrane; assay type: cell membranes
# Chain of 5-hydroxytryptamine receptor 2A (P14842 whole entry): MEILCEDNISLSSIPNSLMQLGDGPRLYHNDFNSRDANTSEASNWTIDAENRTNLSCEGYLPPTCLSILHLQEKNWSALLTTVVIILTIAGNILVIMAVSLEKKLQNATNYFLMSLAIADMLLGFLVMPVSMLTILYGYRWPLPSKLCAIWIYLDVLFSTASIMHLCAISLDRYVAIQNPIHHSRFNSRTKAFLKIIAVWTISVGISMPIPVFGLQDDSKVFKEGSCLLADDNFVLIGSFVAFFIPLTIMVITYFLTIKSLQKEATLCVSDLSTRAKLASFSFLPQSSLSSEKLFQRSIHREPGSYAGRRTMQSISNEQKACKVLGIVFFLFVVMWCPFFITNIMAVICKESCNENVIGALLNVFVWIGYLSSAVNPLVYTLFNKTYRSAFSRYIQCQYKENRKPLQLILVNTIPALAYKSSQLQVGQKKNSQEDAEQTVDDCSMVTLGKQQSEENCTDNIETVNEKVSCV
Ki [1] [µM],Ki [2] [µM],SMILES
1.7,–,Oc1ccc(N2CCN(Cc3cn(-c4ccc(Cl)cc4)nn3)CC2)cc1
0.95,11,Clc1ccc(-n2cc(CN3CCN(c4ccccc4)CC3)nn2)cc1
